Experimental data as given in article PMC10723784, “Investigation of the cytotoxicity induced by cannabinoids on human ovarian carcinoma cells” (Pharmacology Research & Perspectives, 2023).

How the values were obtained:
ARPE19 cells = experiment: Annexin V assay, ARPE19 cells; format: cell-based, human; settings: ARPE19, 50 μM, 24 h
Method: The Annexin V assay was performed to differentiate healthy cells from early and late apoptotic cells. Cells were seeded in T25 flasks at 2.75 × 10^5 cells per flask and were incubated for 24 h. After the incubation time elapsed, drugs at concentrations of 10, 30, and 50 μM or vehicle were added to the flasks and further incubated for 24 h. Cells were suspended in PBS at a density of 4 × 10^5 cells/mL, followed by centrifugation at 400 g for 5 min. The supernatant was removed and replaced with 100 μL of Annexin V mix, 94 μL of Roche buffer, 2 μL of Annexin V‐CF488A, 2 μL of 10 μg/mL of propodium iodide (PI), and 2 μL of Hoechst 33342 buffer. Hoechst 33342 buffer in the Annexin V mix binds to the nuclei in the sample and fluoresces violet. The early apoptotic cells are stained with Annexin V‐CF488A, which fluoresces green. The non‐viable cells are stained by PI, and the late apoptotic cells are stained by both PI and Annexin V‐CF488A, which fluoresces red and green, respectively. […] After the incubation time elapsed, 40 μL of samples were loaded on to an A‐2 slide and were analyzed immediately using the NC‐3000 system. The scatter plot of the fluorescence intensity of Annexin V‐CF488A versus the fluorescence intensity of PI was used as a representation of cells in different stages of apoptosis.

A2780/CP70 cells = experiment: Mitochondrial membrane potential assay (JC-1), A2780/CP70 cells; format: cell-based, human; settings: A2780/CP70, 10-50 μM, 24 h, dose-dependent
Method: The mitochondrial membrane potential assay was performed to detect the loss in mitochondrial potential (de‐polarization), which is a vital step in apoptosis.[36] Cells were seeded in T25 flasks at 4 × 10^5 cells per flask and were incubated for 48 h or until they reached confluency. After the incubation time elapsed, drugs at concentrations of 10, 30, and 50 μM or vehicle were added to the flasks and further incubated for 24 h. After 24 h elapsed, the cells were harvested and suspended in PBS. Cell viability and number were determined by the cell viability assay using via1 cassettes on NC‐3000 system. The samples were diluted in PBS to 1 × 10^6 cells/mL and 2.5 μg/mL of JC‐1 dye was added to each sample. JC‐1 is a […] dye, which stains as fluorescent red as it aggregates in the mitochondrial matrix. In the absence of mitochondrial membrane potential, JC‐1 localizes in the cytosol in its fluorescent green form. Following the addition of JC‐1, the cells were incubated for 10–30 min at 37°C. […] 12.5 μL of samples were loaded on to an A‐8 slide and were analyzed using the NC‐3000 image cytometry. The degree of apoptosis (in proportional to the loss in mitochondrial membrane potential) was measured using a scatter plot of JC‐1 red fluorescence versus JC‐1 green fluorescence.

[1] = tested on: caspase 3/7 activity in A2780 cells; experiment: Caspase 3/7 assay, A2780 cells; format: cell-based, human; settings: A2780, 24 h contact time, dose-dependent, significant above 10 μM
Method: (§1) Sensolyte homogenous caspase 3/7 assay kit was used to determine the caspase activity in ovarian cancer cells when treated with CBG. Cells were seeded in 96‐well plate at 6 × 10^3 cells per well and were incubated for 24 h. CBG was added in concentrations of 10, 20, 30, and 50 μM and incubated for a further 24 h. After the incubation time elapsed, the media was removed and replaced with 150 μL/well of fresh complete media. Caspase 3/7 solution was prepared by diluting the caspase substrate 1:100 with DTT‐containing assay buffer. 50 μL/well caspase substrate was added to the plates, and the cells were incubated for 30 min. Ac‐DEVD‐AMC serves as the fluorogenic indicator for assaying caspase‐3/7 activity. Ac‐DEVD‐AMC generates the AMC fluorophore in the presence of caspase 3/7, which produces bright blue fluorescence. The fluorescence was measured by the FLOUstar OPTIMA plate reader with the excitation at 354 nm and emission at 442 nm.
(§2) The level of caspase 3/7 was also determined using Apotox‐Glo Triple assay. Cells were seeded and drugs were added as described above in Section 2.6.1. After 24 h incubation, caspase 3/7 reagent was prepared by mixing caspase buffer and substrate and 100 μL of reagent was added to each well for 30 min incubation at room temperature. […] The luminescence was measured by the FLOUstar OPTIMA plate reader.

[2] = tested on: caspase 3/7 activity in A2780/CP70 cells; experiment: Caspase 3/7 assay, A2780/CP70 cells; format: cell-based, human; settings: A2780/CP70, 24 h contact time, dose-dependent, significant above 10 μM
Method: as §1, §2

[3] = MTT cytotoxicity assay, non-cancer PNT2 cells; settings: human, PNT2 normal prostate epithelial cells
Method: (§3) Human ovarian carcinoma cells, A2780 (sensitive to chemotherapeutics), A2780/CP70 (resistant to chemotherapeutics), and non‐cancerous cells including PNT2 (normal prostate epithelial cell line), and/or ARPE19 (human retinal pigment cell line) were maintained according to the ATCC and ECACC guidelines.
(§4) In vitro chemosensitivity assays were performed using the MTT assay as previously described.[32], [33] Briefly, at 70% confluency, cells were seeded in 96‐well plates at a density of 2000 cells/well. […] After the allocated contact time had elapsed, the media was removed and 0.5% (w/v) MTT solution diluted in complete media (200 μL) was added to each well. Following a 4 h incubation, the supernatants were removed, and the formazan crystals were dissolved in dimethylsulfoxide (150 μL). The absorbance was read at 540 nm on a Tecan Infinite 50 plate UV reader.

[4] = MTT cytotoxicity assay, non-cancer ARPE19 cells; settings: human, ARPE19 non-cancer retinal pigment cells
Method: as §3, §4

CCCCCc1cc(O)c(C/C=C(\C)CCC=C(C)C)c(O)c1 [CBG, cannabigerol]
Cells in early apoptosis (ARPE19 cells): 54 ± 2.1%
Cells in late apoptosis (ARPE19 cells): 5.6 ± 1.8%
Percentage of apoptotic cells (loss of mitochondrial membrane potential) (A2780/CP70 cells): induced an increase in the percentage of apoptotic cells
Caspase 3/7 activity [1]: increased the caspase 3/7 activity
Caspase 3/7 activity [2]: increased the caspase 3/7 activity
IC50 at 24 h [3]: 37.2 ± 2.1 µM
IC50 at 48 h [3]: 22.9 ± 1.5 µM
IC50 at 72 h [3]: 19.9 ± 0.3 µM
IC50 at 96 h [3]: 18.3 ± 1.3 µM
IC50 at 24 h [4]: 32.1 ± 1.8 µM
IC50 at 48 h [4]: 21.2 ± 2.7 µM
IC50 at 72 h [4]: 19.2 ± 1 µM
IC50 at 96 h [4]: 17.4 ± 2.4 µM
